Test results taken from patent US6080542A, “Plant peptide transport gene” (priority 1997, dated 2000).
Where two headings read alike, the source gives them in different places. Where no end group is shown, it is not given here. Eth = ethionine

Legend:
[1] = molecular target: T1, yeast peptide transport system (Saccharomyces cerevisiae, UniProt P32901); assay: Competition for L-leucyl-L-[3H]leucine uptake, PB1X-9B[pJP9]; type: cell-based; conditions: pH 5.5
T1 construct: The ptr2 gene encodes a 602 amino acid hydrophobic polypeptide with 12 putative hydrophobic segments; expressed in transfected cells; host or cells: S. cerevisiae peptide transport mutant PB1X-9B (ptr2-2) transformed with pJP9
T1 sequence (P32901 1-601): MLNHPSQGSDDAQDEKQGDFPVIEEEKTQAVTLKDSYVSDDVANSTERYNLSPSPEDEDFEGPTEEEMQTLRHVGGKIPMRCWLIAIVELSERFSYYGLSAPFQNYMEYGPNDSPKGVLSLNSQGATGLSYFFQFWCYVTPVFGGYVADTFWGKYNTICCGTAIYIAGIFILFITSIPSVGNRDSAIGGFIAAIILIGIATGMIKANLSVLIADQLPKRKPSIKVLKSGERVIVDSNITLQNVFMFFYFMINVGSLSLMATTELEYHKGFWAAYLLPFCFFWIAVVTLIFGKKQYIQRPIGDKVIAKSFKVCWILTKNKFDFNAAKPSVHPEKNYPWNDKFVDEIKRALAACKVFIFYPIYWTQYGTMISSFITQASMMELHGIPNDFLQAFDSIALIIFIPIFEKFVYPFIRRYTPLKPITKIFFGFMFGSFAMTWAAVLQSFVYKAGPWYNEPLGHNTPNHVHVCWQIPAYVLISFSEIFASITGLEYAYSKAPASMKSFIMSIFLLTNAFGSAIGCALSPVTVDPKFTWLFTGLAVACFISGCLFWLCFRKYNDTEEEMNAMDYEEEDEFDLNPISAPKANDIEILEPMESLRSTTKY
Protocol: (§1) L-leucyl-L [^3 H]leucine trifluoroacetic acid (TFA) was synthesized by standard solution phase techniques (Naider, F. et al., J. Biol. Chem. 249:9-20 (1974)). Uptake of L-leucyl-L-[H]leucine was performed as by Island, M. D. et al (J. Bacteriol. 169:2132-2136 (1987)), with the following modifications. Cells were grown to late log phase (26×10^7 cells/ml) overnight in SC with 2% glucose, 1 mg/ml allantoin plus amino acids to supplement auxotrophic markers. To induce peptide transport. 5-15 ml from this culture was added to 100 ml fresh medium such that the density was 3.0×10^6 cells/ml. This culture was allowed to grow (approx. 2 hrs.) to a density of 6.0×10^6 cells/ml and then harvested by centrifugation. The pelleted cells were washed twice with 10 ml cold dH2 O and suspended in cold 2% glucose to a final concentration of 2×10^8 cells/ml and incubated at 30° C. for 15 min. 500 μl of cells were then added to an equal volume of reaction mixture (30° C.) and incubated at 30°-C. At 20, 40, 60, 90, and 120 sec. intervals, 190 μl portions were removed, filtered over filters (pore size, 0.45 μm; GN-6; Gelman Sciences, Inc., Ann Arbor, Mich.) and washed 2 times with 5 ml cold, sterile dH2 O and once with 5 ml dH2 O at room temperatures. Filters were placed in scintillation vials with 5 ml of Budget-Solve scintillation cocktail (Research Products International Corp., Mount Prospect, Ill.) and counted (liquid scintillation counter; LS-7000; Beckman Instruments, Inc., Fullerton, Calif.). The final concentration of the components in the uptake assay was 1% glucose, 40 mM sodium citrate-potassium phosphate buffer (pH 5.5), and 1.5×105 M L-leucyl-L-[^3 H]leucine (specific activity, 10 mCi/mmole). Uptake is expressed as nanomoles per mg dry weight.

ATPTR2Ap = assay: Uptake of L-leucyl-L-[3H]leucine and competition, PB1X-9B[pPTF4]; conditions: for competition for uptake of [3H]-dileucine: PB1X-9B[pPTF4], pH 5.5, dileucine and leucine at 100-fold; for uptake of radiolabeled dileucine: PB1X-9B transformed with pPTF4, compared with wild type, trifluoroacetic acid (TFA)
Protocol: The kinetics of ATPTR2A-mediated transport of peptides in yeast was evaluated by transforming pPTF4 into the S. cerevisiae peptide transport mutant, PB1X-9B and measuring the uptake of tritiated Leu-Leu dipeptide.
as §1

A. thaliana seedlings [2] = assay: Root assay, toxic peptide plus competitor peptide; type: in vivo, Arabidopsis thaliana
Protocol: (§2) Approximately 15 A. thaliana seeds were placed in a row at one end of 10 cm plate containing 20 ml of Arabidopsis growth media (Kranz and Kirchheim 1987). The seeds were incubated 3-5 days in the light with the plate set in an upright position. When the roots were approximately 1-2 cm long, sterile paper filter disks were placed immediately in front of the root tips on the right and left side of the plate 2 cm from the edge of the plate. A line was drawn across the plate using the top of the disks as a guide marking zero growth. 5 μl of toxic amino acid analog, toxic peptide, or toxic peptide plus competitor was added to one disk while H2 O was place on the other disk. The plates were incubated for an additional 3-5 days. The average length of the roots was measured from the line and the results expressed as a percentage of control root growth.

S288C = assay: Toxic peptide disk assay, wild type; type: cell-based, Saccharomyces cerevisiae; conditions: for diameter of zone of inhibition: disk with 0.38 μmoles, lawn of 5×10^6 cells, 30° C., 1 to 2 days, mean ± standard error
Protocol: (§3) Since ptr mutants are deficient in peptide transport, they are unable to take up toxic peptides. This inability renders such mutants resistant to the toxic effect of the peptides. In order to determine whether the polynucleotides of the present invention could restore toxic peptide sensitivity to ptr2 mutants, the sensitivity of plasmid-transformed cells was determined. Sensitivity to toxic amino acids and peptides was measured as described by Island, M. D. et al. (J. Bacteriol. 169:2132-2136 (1987)). Briefly, a filter disk containing 0.38 μmoles of the toxic compound was placed on a lawn containing 5×10^6 cells and the plate incubated at 30° C. for 1 to 2 days. Resulting halos were measured across their diameter. The toxic dipeptides Leu-Eth, Ala-Eth, Leu-F-Phe and Oxalysine were synthesized by standard solution phase techniques (Naider, F. et al., J. Biol. Chem. 249:9-20 (1974). The results of this experiment are shown in Table 2 (values are the mean of the diameters of the observed zone of inhibition in millimeters±standard error of the mean of at least two independent experiments).

PB1X-9B (pPTF4) = assay: Toxic peptide disk assay, mutant with plant gene ATPTR2A; type: cell-based, Saccharomyces cerevisiae; conditions: for diameter of zone of inhibition: disk with 0.38 μmoles, lawn of 5×10^6 cells, 30° C., 1 to 2 days, mean ± standard error
Protocol: as §3

A. thaliana seeds = assay: Seed germination with toxic peptides (minimum inhibitory concentration); type: in vivo, Arabidopsis thaliana
Protocol: (§4) Thus, A. thaliana seeds and seedlings were exposed to Ethionine, Ala-Eth, Leu-Eth, Leu-fluorophenylalanine or oxalysine containing peptides, and the minimum inhibitory concentrations (MIC) were determined for each of the toxic compounds.
To measure the minimum inhibitory concentration of the toxic peptides, 10 to 15 A. thaliara seeds were place on solid Arabidopsis growth media with decreasing concentrations of toxic peptide. The seeds were incubated for 4 days in the dark and then scored for germination.

PB1X-9B = assay: Toxic peptide disk assay, peptide transport mutant; type: cell-based, Saccharomyces cerevisiae
Protocol: as §3

[3] = system: S. cerevisiae strains tested; assay: Toxic peptide disk assay, statements covering several strains; type: cell-based, Saccharomyces cerevisiae; conditions: wild type (S288C) and transformants
Protocol: as §3

PB1X-9B (pJP9) = assay: Toxic peptide disk assay, mutant with yeast peptide transport gene; type: cell-based, Saccharomyces cerevisiae; conditions: for diameter of zone of inhibition: disk with 0.38 μmoles, lawn of 5×10^6 cells, 30° C., 1 to 2 days, mean ± standard error
Protocol: as §3

PB1X-9B(pJP2) = assay: Dipeptide utilization, L-alanyl-L-ethionine sensitivity and dileucine transport of secondary transformants; type: cell-based, Saccharomyces cerevisiae; conditions: compared with wild type
Protocol: Plasmid pJP2 was then reintroduced into PB1X-9B. The resulting secondary yeast transformants were tested for the ability to use a variety of dipeptides as sources of amino acids and for sensitivity to the toxic dipeptide L-alanyl-L-ethionine. Thus, strains were grown in YEPG broth at 30° C. to a titer of 10^8 cells per ml. The cells were harvested by centrifugation, washed twice with sterile water and resuspended at 1.0×10^7 cells per ml. A 5-μl aliquot was applied to solid MM containing dipeptides and amino acids as required. Four types of solid media were routinely used in assessing dipeptide utilization: MM+L-leucyl-L-leucine-L-lysine+L-histidine, MM-L-lysI-L-lysine-L-leucine-L-histidine (SEQ ID NO:12), MM-L-lysl-L-leucine-L-histidine, and MM-L-histydyl-L-leucine-L-lysine. All dipeptides were present at a concentration of 80 μM, while amino acids and nucleotide bases were added as required at standard concentrations (Sherman, F. et al., In: Methods in Yeast Genetics, Cold Spring Harbor Laboratory, Clod Spring Harbor, N.Y. (1986)). The plates were incubated at 30° C. for 48 hours and then scored for growth.

A. thaliana seedlings [4] = assay: Root elongation of seedlings exposed to toxic peptides; type: in vivo, Arabidopsis thaliana
Protocol: as §4, §2

Lys-Leu-Leu-Leu-Eth = molecular target: T2, Lys-Leu-Leu-Leu-Eth; assay: cell-based or functional assay
T2 peptide: KLLL-Eth

Lys-Leu-Leu-Ala-Eth = molecular target: T3, Lys-Leu-Leu-Ala-Eth; assay: cell-based or functional assay
T3 peptide: KLLA-Eth

NCC(=O)CCC(=O)O [ALA, γ-aminolevulinic acid]
competition for uptake of [3H]-dileucine [1]: able to compete
competition for uptake of [3H]-dileucine (ATPTR2Ap): lack of inhibition
competition for uptake of [3H]-dileucine (ATPTR2Ap; listed as γ-aminolevulinic acid): did not compete
reversal of toxicity by competitor (in words) (A. thaliana seedlings [2]; toxic peptide Ala-Eth): unable to reverse the inhibition
root growth with toxic peptide plus competitor (A. thaliana seedlings [2]; toxic peptide Ala-Eth): 0 percentage of control root gro
reversal of toxicity by competitor (in words) (A. thaliana seedlings [2]; toxic peptide Leu-Eth): unable to reverse the inhibition
root growth with toxic peptide plus competitor (A. thaliana seedlings [2]; toxic peptide Leu-Eth): 0 percentage of control root gro

CCSCC[C@H](N)C(=O)O [Eth, ethionine]
diameter of zone of inhibition (S288C): 39.0 ± 3.0 millimeters
sensitivity or resistance to toxic compound (PB1X-9B (pPTF4)): sensitive
diameter of zone of inhibition (PB1X-9B (pPTF4)): 46.5 ± 0.5 millimeters
root length at which growth was arrested (A. thaliana seeds; seeds exposed to the toxic compound): 1-2 mm
sensitivity or resistance to toxic compound (PB1X-9B): sensitive
diameter of zone of inhibition (PB1X-9B; disk with 0.38 μmoles, lawn of 5×10^6 cells, 30° C., 1 to 2 days, mean ± standard error): 44.5 ± 3.5 millimeters
sensitivity to toxic compound [3]: most sensitive
diameter of zone of inhibition (PB1X-9B (pJP9)): 46.5 ± 1.5 millimeters

L-leucyl-L [^3 H]leucine trifluoroacetic acid (TFA) [[H^3]-dileucine]
uptake of radiolabeled dileucine (ATPTR2Ap; listed as radiolabeled dileucine): comparable to that of wild type
uptake of radiolabeled dileucine (ATPTR2Ap): wild-type levels
transport of radiolabeled dileucine (PB1X-9B(pJP2)): levels approximating those of the wild type

Leu-fluorophenylalanine [Leu-F-Phe]
appearance of halo (S288C): hazy background within the halo
diameter of zone of inhibition (S288C): 28.0 ± 4.0 millimeters
sensitivity or resistance to toxic compound (PB1X-9B (pPTF4)): restores sensitivity
diameter of zone of inhibition (PB1X-9B (pPTF4)): 37.0 ± 1.0 millimeters
sensitivity or resistance to toxic compound (PB1X-9B (pPTF4); listed as leucine-fluorophenylaianine): greater and more complete sensitivity
amount that inhibits germination of seeds (A. thaliana seeds; A. thaliana seeds): not inhibited
sensitivity to toxic compound [3]: less sensitive
amount that inhibits root elongation of seedlings (A. thaliana seedlings [4]): not inhibited
appearance of halo (PB1X-9B (pJP9)): hazy background within the halo
diameter of zone of inhibition (PB1X-9B (pJP9)): 20.5 ± 3.0 millimeters

tri-Ala: competitor tripeptide
competition for uptake of [3H]-dileucine [1]: uptake competition similar to that seen for Leu-Leu
competition for uptake of [3H]-dileucine (ATPTR2Ap): uptake competition similar to that seen for Leu-Leu
reversal of toxicity by competitor (in words) (A. thaliana seedlings [2]; toxic peptide Ala-Eth): unable to reverse the inhibition
root growth with toxic peptide plus competitor (A. thaliana seedlings [2]; toxic peptide Ala-Eth): 0 percentage of control root gro
reversal of toxicity by competitor (in words) (A. thaliana seedlings [2]; toxic peptide Leu-Eth): unable to reverse the inhibition

B1: yeast peptide transporter SACPTR2p (other)
chain: MLNHPSQGSDDAQDEKQGDFPVIEEEKTQAVTLKDSYVSDDVANSTERYNLSPSPEDEDFEGPTEEEMQTLRHVGGKIPMRCWLIAIVELSERFSYYGLSAPFQNYMEYGPNDSPKGVLSLNSQGATGLSYFFQFWCYVTPVFGGYVADTFWGKYNTICCGTAIYIAGIFILFITSIPSVGNRDSAIGGFIAAIILIGIATGMIKANLSVLIADQLPKRKPSIKVLKSGERVIVDSNITLQNVFMFFYFMINVGSLSLMATTELEYHKGFWAAYLLPFCFFWIAVVTLIFGKKQYIQRPIGDKVIAKSFKVCWILTKNKFDFNAAKPSVHPEKNYPWNDKFVDEIKRALAACKVFIFYPIYWTQYGTMISSFITQASMMELHGIPNDFLQAFDSIALIIFIPIFEKFVYPFIRRYTPLKPITKIFFGFMFGSFAMTWAAVLQSFVYKAGPWYNEPLGHNTPNHVHVCWQIPAYVLISFSEIFASITGLEYAYSKAPASMKSFIMSIFLLTNAFGSAIGCALSPVTVDPKFTWLFTGLAVACFISGCLFWLCFRKYNDTEEEMNAMDYEEEDEFDLNPISAPKANDIEILEPMESLRSTTKY
diameter of the zone of inhibition, disk assay with 0.38 µmoles (Lys-Ala-Eth): 36 mm
diameter of the zone of inhibition, disk assay with 0.38 µmoles (L-alanyl-L-ethionine): 42.5 mm
diameter of the zone of inhibition, disk assay with 0.38 µmoles (Lys-Leu-Eth): 36 mm
diameter of the zone of inhibition, disk assay with 0.38 µmoles (Lys-Leu-Ala-Eth): 0 mm
diameter of the zone of inhibition, disk assay with 0.38 µmoles (Leu-F-Phe): 20.5 mm
diameter of the zone of inhibition, disk assay with 0.38 µmoles (Leu-Eth): 47 mm
diameter of the zone of inhibition, disk assay with 0.38 µmoles (Lys-Leu-Leu-Eth): 0 mm
diameter of the zone of inhibition, disk assay with 0.38 µmoles (Lys-Leu-Leu-Leu-Eth): 0 mm
diameter of the zone of inhibition, disk assay with 0.38 µmoles (Lys-Leu-Leu-Ala-Eth): 0 mm
